Laboratory results published in patent US20240307349A1, “METHODS FOR THE PREPARATION AND DOSE REGIMENS FOR USE OF SSTR4 AGONISTS AND SALTS THEREOF” (priority 2023, published 2024).

Key:
participants with DPNP = test: H0P-MC-NP03 Phase 2 placebo-controlled trial, diabetic peripheral neuropathic pain; type: in vivo, human
Excerpt: The purpose of this study was to test whether Example 5 is efficacious in relieving diabetic peripheral neuropathic pain (DPNP). Data was collected to assess the safety and tolerability of Example 5 in this study population and previously discussed above. Pharmacokinetic properties and pharmacodynamic effects were also explored. The totality of data from this proof-of-concept study will assess the benefits and risks associated with Example 5.
NP03 was an 8-week, Phase 2, randomized, double-blind, placebo-controlled study that compared Example 5 versus placebo in participants with DPNP.
Participants received either Example 5 or placebo. Based on tolerability, participants received up to a maximum of 3 capsules orally (each capsule was 200 mg), twice daily, approximately every 12 hours, for a total dose of 600 mg.
The primary clinical question of interest was, “What is the treatment difference between Example 5 and placebo assessed using mean change from baseline to endpoint (Week 8) for average pain intensity (API) as measured by the Numeric Rating Scale (NRS) in participants with diabetic peripheral neuropathic pain (DPNP) regardless of initiation of rescue medication or other allowed concomitant medication and assuming that they would have continued initially randomized treatment condition?”
Participants were randomly assigned 2:1 to Example 5 or placebo. Based on tolerability, participants could take up to a maximum of 3 capsules orally (each capsule was 200 mg), twice daily (BID), approximately every 12 hours, for a total dose of 600 mg BID.
The protocol allowed changes to the dose for individual participants, but the maximum daily dose should not exceed 600 mg BID. The starting dose level was 200 mg BID. Decisions to change the dose level were made by the investigator in discussion with the participants based on the adverse events (AEs) reported for tolerability. The medical monitor was contacted as needed. All changes in dose level had to occur before the end of Visit 4 (Study Week 2).
NP03 was an 8-week, multicenter, randomized, DB, placebo-controlled, Phase 2, proof-of-concept study to evaluate Example 5 for the treatment of DPNP. Participants were randomly assigned 2:1 to Example 5 or placebo. A total of 68 participants enrolled into the NP03 ISA, with 45 participants randomly assigned to Example 5, and 23 participants assigned to placebo. The safety population consisted of the 68 participants who received at least 1 dose of study intervention and included all participants in the enrolled population. Using a titration scheme, Example 5 was administered orally as a maximum of 3 capsule (200 mg per capsule) for a total dose of 600 mg approximately every 12 hours, with or without food. Fifty percent of participants completed the BD treatment phase.

[1] = system: participants with OA in the knee; test: H0P-MC-OA03 Phase 2 placebo-controlled trial, osteoarthritis pain; type: in vivo, human
Excerpt: The purpose of this study was to test whether Example 5 is efficacious in relieving osteoarthritis (OA) pain in the knee. Data was also collected to assess the safety and tolerability of Example 5 in this study population and previously discussed. Pharmacokinetic properties and pharmacodynamic effects were also be explored. The totality of data from this proof-of-concept study assessed the benefits and risks associated with Example 5.
OA03 was an 8-week, Phase 2, randomized, double-blind, placebo-controlled study that compared Example 5 versus placebo in participants with OA in the knee.
The primary clinical question of interest was “What is the treatment difference between Example 5 and placebo assessed using mean change from baseline to endpoint (Week 8) for average pain intensity (API) as measured using the numeric rating scale (NRS) in participants with OA of the knee regardless of initiation of rescue medication or other allowed concomitant medication and assuming that they would have continued initially randomized treatment condition?”
The key secondary clinical question of interest was: “What is the treatment difference between Example 5 and placebo assessed using mean change from baseline to endpoint (Week 8) for pain as measured by the WOMAC® (Western Ontario and McMaster Universities Arthritis Index) pain subscale in participants with OA of the knee regardless of initiation of rescue medication or other allowed concomitant medication and assuming that they would have continued initially randomized treatment condition?”
Participants were randomly assigned in the ratio of 2:1 to Example 5 or placebo. Based on tolerability, participants could take up to a maximum of 3 capsules orally (each capsule was 200 mg), twice daily (BID), approximately every 12 hours, for a total dose of 600 mg.
The protocol was amended to include a titration to the target dose of 600 mg. Investigators could reduce the dose from 600 to 400 mg after discussion with the participant due to tolerability as long as the change occurred before the end of Visit 4, that is, study Week 2. The medical monitor was contacted as needed.

SMILES: Cc1cccnc1OCC(C)(C)NC(=O)[C@H]1[C@@H]2CNC[C@@H]21.O=C(O)C(O)C(O)C(=O)O [Example 5, (1R,5S,6r)-N-(2-Methyl-1-((3-methylpyridin-2-yl)oxy)propan-2-yl)-3-azabicyclo[3.1.0]hexane-6-carboxamide L-tartrate sesquihydrate]
- Mean Change of Average Pain Intensity, Weekly Average of NRS (participants with DPNP; 400 mg BID, week 1, n = 8): −0.74
- Observed Mean of Average Pain Intensity, Weekly Average of NRS (participants with DPNP; 400 mg BID, week 1, n = 8): 5.76
- Mean Change of Average Pain Intensity, Weekly Average of NRS (participants with DPNP; 400 mg BID, week 2, n = 9): −1.62
- Observed Mean of Average Pain Intensity, Weekly Average of NRS (participants with DPNP; 400 mg BID, week 2, n = 9): 4.90
- Mean Change of Average Pain Intensity, Weekly Average of NRS (participants with DPNP; 400 mg BID, week 3, n = 9): −2.12
- Observed Mean of Average Pain Intensity, Weekly Average of NRS (participants with DPNP; 400 mg BID, week 3, n = 9): 4.41
- Mean Change of Average Pain Intensity, Weekly Average of NRS (participants with DPNP; 400 mg BID, week 4, n = 6): −2.05
- Observed Mean of Average Pain Intensity, Weekly Average of NRS (participants with DPNP; 400 mg BID, week 4, n = 6): 5.46
- Mean Change of Average Pain Intensity, Weekly Average of NRS (participants with DPNP; 400 mg BID, week 5, n = 4): −3.37
- Observed Mean of Average Pain Intensity, Weekly Average of NRS (participants with DPNP; 400 mg BID, week 5, n = 4): 4.66
- Mean Change of Average Pain Intensity, Weekly Average of NRS (participants with DPNP; 400 mg BID, week 6, n = 5): −2.72
- Observed Mean of Average Pain Intensity, Weekly Average of NRS (participants with DPNP; 400 mg BID, week 6, n = 5): 4.15
- Mean Change of Average Pain Intensity, Weekly Average of NRS (participants with DPNP; 400 mg BID, week 7, n = 4): −3.34
- Observed Mean of Average Pain Intensity, Weekly Average of NRS (participants with DPNP; 400 mg BID, week 7, n = 4): 2.96
- Mean Change of Average Pain Intensity, Weekly Average of NRS (participants with DPNP; 400 mg BID, week 8, n = 4): −3.39
- Observed Mean of Average Pain Intensity, Weekly Average of NRS (participants with DPNP; 400 mg BID, week 8, n = 4): 4.17
- Mean Change of Average Pain Intensity, Weekly Average of NRS (participants with DPNP; 600 mg BID, week 1, n = 30): −0.72
- Observed Mean of Average Pain Intensity, Weekly Average of NRS (participants with DPNP; 600 mg BID, week 1, n = 30): 5.77
- Mean Change of Average Pain Intensity, Weekly Average of NRS (participants with DPNP; 600 mg BID, week 2, n = 29): −1.59
- Observed Mean of Average Pain Intensity, Weekly Average of NRS (participants with DPNP; 600 mg BID, week 2, n = 29): 4.91
- Mean Change of Average Pain Intensity, Weekly Average of NRS (participants with DPNP; 600 mg BID, week 3, n = 23): −2.09
- Observed Mean of Average Pain Intensity, Weekly Average of NRS (participants with DPNP; 600 mg BID, week 3, n = 23): 4.82
- Mean Change of Average Pain Intensity, Weekly Average of NRS (participants with DPNP; 600 mg BID, week 4, n = 24): −2.18
- Observed Mean of Average Pain Intensity, Weekly Average of NRS (participants with DPNP; 600 mg BID, week 4, n = 24): 4.64
- Mean Change of Average Pain Intensity, Weekly Average of NRS (participants with DPNP; 600 mg BID, week 5, n = 21): −2.43
- Observed Mean of Average Pain Intensity, Weekly Average of NRS (participants with DPNP; 600 mg BID, week 5, n = 21): 4.18
- Mean Change of Average Pain Intensity, Weekly Average of NRS (participants with DPNP; 600 mg BID, week 6, n = 19): −2.37
- Observed Mean of Average Pain Intensity, Weekly Average of NRS (participants with DPNP; 600 mg BID, week 6, n = 19): 4.26
- Mean Change of Average Pain Intensity, Weekly Average of NRS (participants with DPNP; 600 mg BID, week 7, n = 17): −2.64
- Observed Mean of Average Pain Intensity, Weekly Average of NRS (participants with DPNP; 600 mg BID, week 7, n = 17): 3.78
- Mean Change of Average Pain Intensity, Weekly Average of NRS (participants with DPNP; 600 mg BID, week 8, n = 16): −2.74
- Observed Mean of Average Pain Intensity, Weekly Average of NRS (participants with DPNP; 600 mg BID, week 8, n = 16): 3.79
- Mean change from baseline assessment to endpoint for API as measured using the NRS (participants with DPNP; 8 weeks after initial treatment administration, up to 600 mg Q12H, n = 45): −2.75
- most secondary endpoints compared with placebo (participants with DPNP; DPNP): greater numerical improvements
- decrease in API measured by NRS, 400 mg dosing regimen compared with the 600 mg dosing regimen (participants with DPNP; Week 8): greater decrease in API measured by NRS in the 400 mg dosing regimen
- primary objective: posterior probability for change from baseline in API versus placebo (participants with DPNP; Week 8, DPNP): met the prespecified threshold
- Mean change from baseline assessment to endpoint for worst pain intensity as measured by weekly NRS (participants with DPNP; Week 8, n = 45): −3.06
- Mean change from baseline assessment to endpoint on the VAS for pain (participants with DPNP; Week 8, n = 45): −30.20
- Mean change from baseline to endpoint for the BPI-SFM (participants with DPNP; Week 8, n = 45): −2.31
- Overall improvement to endpoint as measured by PGIC (participants with DPNP; Week 8, n = 45): 2.3
- Mean change from baseline assessment to endpoint for API as measured using the NRS ([1]; 8 weeks after initial treatment administration, up to 600 mg Q12H, n = 135): −1.7
- key secondary objective: efficacy versus placebo, WOMAC pain subscale ([1]; Week 8): did not meet the prespecified threshold
- primary objective: efficacy versus placebo, API by weekly average of NRS ([1]; Week 8, osteoarthritic pain): did not meet the prespecified threshold
- mean change in pain intensity from baseline assessment to Week 8 using the WOMAC pain subscale ([1]; Week 8, up to 600 mg Q12H, n = 135): −2.6
